The text below walks through data of EP0231622B1, “Inhibition of the 5-lipoxygenase pathway” (priority 1985, dated 1987).

pIC50: −log10 of the molar value. Read-outs that look alike come from different tables or passages of the source. Marks after values point to notes of the source that are not given here.

Test [1] deals with Arachidonic Acid-Induced Inflammation of the Mouse Ear. The test can be described thus: Arachidonic acid-induced mouse ear inflammation. It counts as in vivo, Balb/c mice. From the text: (§1) In the following Examples where mice were used, they were male Balb/c mice (20-28 g), and where rats were used, they were male Lewis rats (180-210 g). All mice and rats were obtained from Charles River Breeding Laboratories, Kingston, N.Y. Within a single experiment, mice and rats were sex and age matched.
(§2) The compounds of Formula (IA) were used either as the free base or in the appropriate salt form. Levamisole was used as the hydrochloride salt. The compounds were homogenized in 0.5% tragacanth. Compounds were administered by gavage at the indicated dose in a final volume of 10 ml/kg. Nordihydroguaiaretic acid (NDGA) was solubilized in dimethylacetamide and diluted with olive oil for subcutaneous administration.
Arachidonic acid in acetone (2 mg/20 ul) was applied to the inner surface of the left ear. The thickness of both ears was then measured with a dial micrometer one hour after treatment, and the data were expressed as the change in thickness (10⁻³ cm) between treated and untreated ears.
Test compounds were given orally in 0.5% tragacanth at the times indicated in the text prior to the topical application of arachidonic acid.
Parenteral administration of compound was accomplished by subcutaneous injection of solution as indicated.

Test [2] concerns Polymorphonuclear Leukocytes. Description: Mouse Carrageenan Peritonitis (PMN infiltration). It counts as in vivo, Balb/c mice. As to conditions: p.o.
Excerpt: as §1, §2
Mice were pretreated with either the test compound or vehicle one hour before the intraperitoneal injection of a 1.0% carrageenan suspension in saline (0.2 ml/ mouse). Mice were sacrificed by cervical dislocation two hours after injection, and 3.0 ml of phosphate buffered saline, without Ca⁺⁺ or Mg⁺⁺, was injected into the peritoneum. Following massage, a 2.0 ml aliquot of the lavage fluid was removed, and the total cell count determined on a Coulter counter and differential cell count determined by microscopic examination of Giesma-stained slides.

Test [3] relates to Production of PGE₂ by Mouse Peritoneal Exudate Cells. The test can be described thus: PGE2 production by peritoneal macrophages. It counts as cell-based. The procedure:
(§3) For in vitro experiments, compounds were dissolved at appropriate concentrations in ethanol or DMSO (dimethylsulfoxide) (final concentration <1.0%) and then diluted to final concentrations using the buffers indicated in the text.
Mice were injected intraperitoneally with 350 »g Corynebacterium parvum and the peritoneal exudate cell population was harvested 12-14 days later by peritoneal lavage with cold phosphate-buffered saline, and resuspended in Eagles minimal essential medium supplemented with 5% fetal calf serum. […] Test compounds were added (100 ul) to bring the final volume to 1.0 ml. Lipopolysaccharide (5 »g/ml) was then added to stimulate PGE₂ synthesis. After incubation at 37°C for 2 hours, cell-free supernatants were harvested, placed in polypropylene tubes and frozen at -20°C until assayed for their PGE₂ content using a commercial radioimmunoassay kit. IC₅₀ is the concentration that inhibits 50% of control activity.

Test [4] concerns Arachidonic Acid-Induced Rat Paw Edema. The test can be described thus: Arachidonic acid-induced rat paw swelling. It counts as in vivo, Lewis rats. As to conditions: read at 2 hours; for Change in Paw Volume: one hour before arachidonic acid.
Excerpt: as §1, §2

Test [5] relates to Arachidonic Acid-Induced Cellular Infiltration. The test can be described thus: Arachidonic acid-induced air pouch inflammation. It counts as in vivo, Lewis rats. As to conditions: 3 hours after arachidonic acid.
Excerpt: as §1, §2
(§4) Rats were shaved on the dorsal flank, and then injected subcutaneously one day later with 20 ml of air to form a defined pouch, by the method of Sedgwick et al., J. Pathology, 141, 483-495 (1983). The air pouch was reinflated as necessary over the next 6 days. To assay anti-inflammatory activity, animals were treated orally with test compound or vehicle (10 ml/kg) one hour before injection of 2.0 ml of a 2.0% carrageenan suspension containing 200 units/ml penicillin and 100 »g/ml streptomycin into the air pouch. In other experiments, 5 ml of 0.1% arachidonic acid in 0.2 M bicarbonate buffer was injected two hours after drug treatment. Animals were sacrificed using CO₂ three hours after instillation of irritant. The exudate was then aspirated from the pouch and neutrophil count and differential cell count were measured.

The test system of test [6] is Carrageenan-Induced Cellular Infiltration. Description: Carrageenan-induced air pouch inflammation. It counts as in vivo, Lewis rats. As to conditions: 3 hours after carrageenan.
Excerpt: as §1, §2, §4

For test [7], the system named is Experimental Allergic Encephalomyelitis. The test can be described thus: Experimental allergic encephalomyelitis, hindleg paralysis. It counts as in vivo, Female Lewis rats. The settings on record: p.o. days 0-4, 7-11, 14-18. The procedure:
EAE is induced in Female (Charles River) Lewis rats by a single intradermal injection of 0.1 ml of an encephalitogenic emulsion consisting of equial parts of a 50% w/v homogenate of guinea pig spinal cord and mid-brain in 0.5% aqueous phenol and Freund's complete adjuvant (4 mg/ml killed, dried M. butyricum) into a hindpaw (left) footpad. […] Any animal which becomes paralyzed during the course of the experiment is considered to have developed EAE whether or not the paralysis is permanent. Test compounds are administered daily beginning on the day of injection, for 19 days, exclusive of days 5, 6 12 and 13. Drug activity is determined by comparing the indicidence of EAE (paralysis) of the treated group with a control (vehicle) group. The level of significant difference between the treated groups and control groups is determined by a Chi-square test using a 2x2 contingency table. Body weight changes from day 0 are also statistically compared to the control group using a Student "t" test.

Another test has as its target T1, 5-LO (Rattus norvegicus, UniProt P12527).
T1 construct: The activities of these enzymes in extracts of RBL-1 cells were assayed; host or cells: RBL-1 cells, disrupted by nitrogen cavitation; 10,000 x g or 100,000 x g supernatant
T1 sequence (P12527 1-673): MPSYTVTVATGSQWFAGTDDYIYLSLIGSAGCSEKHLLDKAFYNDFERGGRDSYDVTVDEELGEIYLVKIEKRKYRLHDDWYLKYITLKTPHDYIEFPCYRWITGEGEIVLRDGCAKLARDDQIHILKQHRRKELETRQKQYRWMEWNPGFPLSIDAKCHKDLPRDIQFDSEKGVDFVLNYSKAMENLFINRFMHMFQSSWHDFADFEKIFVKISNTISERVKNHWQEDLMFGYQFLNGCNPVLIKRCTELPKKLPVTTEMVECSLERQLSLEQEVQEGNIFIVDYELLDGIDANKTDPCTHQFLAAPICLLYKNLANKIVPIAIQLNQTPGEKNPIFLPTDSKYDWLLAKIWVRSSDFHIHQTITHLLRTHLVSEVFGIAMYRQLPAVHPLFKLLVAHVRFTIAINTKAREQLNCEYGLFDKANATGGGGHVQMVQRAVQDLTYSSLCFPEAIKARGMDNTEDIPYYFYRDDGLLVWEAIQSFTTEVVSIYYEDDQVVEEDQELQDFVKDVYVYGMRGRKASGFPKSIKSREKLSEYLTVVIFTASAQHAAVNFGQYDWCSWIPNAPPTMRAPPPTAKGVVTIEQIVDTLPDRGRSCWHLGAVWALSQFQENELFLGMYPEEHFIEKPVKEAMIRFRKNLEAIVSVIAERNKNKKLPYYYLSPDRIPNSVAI
The test can be described thus: di-HETE production by RBL-1 high speed supernatant. It counts as biochemical. As to conditions: concentrations up to 10⁻⁴M; soluble extract of RBL-1 cells. The procedure: as §3
The activities of these enzymes in extracts of RBL-1 cells were assayed using the method of Jakschik and Lee, Nature, 287, 51-52 (1980). RBL-1 cells were obtained from the American Type Culture Collection (#CRL 1378) and were grown at 37°C (5% CO₂ in air) in spinner culture in MEM supplemented with 10% heat inactivated fetal calf serum. Harvested cells were washed with 50 mM sodium phosphate buffer, pH 7.0, containing 1 mM EDTA and 0.1% gelatin, resuspended in fresh buffer (5 x 10⁷ cells/ml) and disrupted by nitrogen cavitation using the Parr bomb at 750 psi for 10 min. The broken cell extract was then centrifuged at 10,000 x g for 20 minutes and the supernatant centrifuged at 100,000 x g for 60 minutes. Aliquots (0.25 mls) of the supernatant were preincubated with or without drugs for 10 min, after which 10 ul CaCl₂ (50 mM) was added and the reaction was initiated with 2.5 ul of 2.5 mM arachidonic acid-1-¹⁴C (final concentration was […]; specific activity 20,000 dpm/nmole). After incubation for 3 min at 37°C, the reaction was terminated by addition of 2 volumes (0.5 ml) ice cold acetone and the sample was allowed to deproteinize on ice for 10 min prior to centrifugation at 1,000 x g for 10 min. The deproteinized supernatant was adjusted to pH 3.5 with 2N formic acid and extracted with 2 volumes of ice cold ethyl acetate. The extracted samples were dried under argon, redissolved in ethyl acetate and applied to Whatman LK5D thin layer chromatography (TLC) plates which were developed using the A-9 solvent system [organic phase of ethyl acetate: 2,2,5-trimethylpentane:acetic acid: water (110:50:20:10)] described by Hamberg and Samuelsson, J. Biol. Chem., 241, 257-263 (1966). Arachidonic acid, 5-HETE, di-HETE and PGD₂ were quantified with a Berthold LB 2832 autoscanner.
The 5-lipoxygenase and LTA₄ synthetase activities were further studied under the following conditions. An additional centrifugation of the RBL-1 supernatant was run at 100,000 x g for 60 min, to remove the particulate cyclooxygenase activity. Sample incubation was done under conditions similar to those described above, i.e., 2 mM CaCl₂ and 25 uM arachidonic acid-1-¹⁴C, however, with an incubation time of 5 min at […]. Under these conditions, only the 5-lipoxygenase pathway metabolites were detectable. The 5-HETE and di-HETEs were formed at a linear rate, and […] amounts of the arachidonic acid-1-¹⁴C substrate were utilized.

For `O=C1CCN(c2ccccc2)N1` [Phenidone], the ED50 in test [1] (Mus musculus, po, 1 hour after 2 mg of arachidonic acid to the ear, read-out: ED₅₀ (inhibition of the edematous response of the ear)) worked out at 44 mg/kg. For the same compound, the “% Change” value in test [1] (Table 7, 50 mg/kg, p.o.) was -57^b %; in test [2] (Table 1, 50 mg/kg), -51^c %; in test [2] (Table 1, 100 mg/kg, PMN vs vehicle), -36^d %; in test [2] (Table 1, 200 mg/kg), -94^b %. Besides, in test [1] (Table 7, 50 mg/kg, p.o., 15 minutes before arachidonic acid), the “Increase in Ear Thickness at 1 Hour (x 10⁻³ cm)” value was found to be 12.2 ± 1.6 x 10⁻³ cm. Moreover, the “PMN x 10⁻⁵/ml (mean ± S.D.)” value in test [2] (Table 1, 50 mg/kg) is 5.30 ± 2.25 x 10⁻⁵/ml; in test [2] (Table 1, 100 mg/kg, 1 h before i.p. carrageenan, read 2 h later) it was 6.97 ± 3.81 x 10⁻⁵/ml; in test [2] (Table 1, 200 mg/kg), 0.66 ± 0.53 x 10⁻⁵/ml. Moreover, the pIC50 is 4.55 in test [3] (Macrophage, read-out: IC₅₀ production of PGE₂ by inflammatory macrophages) and 4.55 in test [3] (Peritoneal macrophage, Table 10, LPS-stimulated, C. parvum-elicited peritoneal exudate cells, read-out: IC₅₀ (»M) production of PGE₂). In addition, the “Change in Paw Volume” value in test [4] (100 mg/kg) turned out to be 0.13 ± 0.05 mL. For the same compound, the “(% Inhibition) of change in paw volume” value in test [4] (100 mg/kg) is 52%. Further, the “Cellular Infiltrate (Total x 10⁻⁶) MN” value in test [5] (100 mg/kg) is 2.2 ± 1.5^d x 10⁻⁶; in test [6] (100 mg/kg), 3.5 ± 1.4 x 10⁻⁶. In addition, the results for the “Cellular Infiltrate (Total x 10⁻⁶) PMN” value in test [5] (100 mg/kg) and in test [6] (100 mg/kg) were 1.3 ± 0.8^e x 10⁻⁶ and 1.7 ± 0.6^d x 10⁻⁶, respectively. Moreover, the results for the “Exudate Volume” value in test [5] (100 mg/kg) and in test [6] (100 mg/kg) were 2.8 ± 0.4 mL and 1.5 ± 0.8 mL, respectively.
As to `COc1ccc2c(c1)c(CC(=O)O)c(C)n2C(=O)c1ccc(Cl)cc1` [Indomethacin], in test [7] (2 Mg/kg/day), the “HINDLEG PARALYSIS - CUMULATIVE INCIDENCE DAY 9 TO 13” value is 6/11 and the “HINDLEG PARALYSIS - CUMULATIVE INCIDENCE DAY 14 TO 18” value is recorded as 10/11. The “Increase in Ear Thickness at 1 Hour (x 10⁻³ cm)” value in test [1] (Table 7, 10 mg/kg, p.o.) came to 24.4 ± 0.8 x 10⁻³ cm. In test [2] (Table 3, 10 mg/kg), the “% Change” value is -12^b % and the “PMN x 10⁻⁵/ml (mean ± S.D.)” value is on record as 8.20 ± 2.65 x 10⁻⁵/ml. Also, on 5-LO, the “effect on eicosanoid formation (di-HETE production)” value was “inactive”. Further, in test [4] (5 mg/kg), the “Change in Paw Volume” value came to 0.29 ± 0.06 mL and the “(% Inhibition) of change in paw volume” value worked out at 0%. In test [5] (5 mg/kg), the “Cellular Infiltrate (Total x 10⁻⁶) MN” value is recorded as 7.0 ± 6.4 x 10⁻⁶, the “Cellular Infiltrate (Total x 10⁻⁶) PMN” value is 5.0 ± 3.8 x 10⁻⁶ and the “Exudate Volume” value is 2.5 ± 0.8 mL. Besides, in test [6] (5 mg/kg), the “Cellular Infiltrate (Total x 10⁻⁶) MN” value is given as 4.0 ± 0.8 x 10⁻⁶, the “Cellular Infiltrate (Total x 10⁻⁶) PMN” value is 2.8 ± 0.7^d x 10⁻⁶ and the “Exudate Volume” value was found to be 2.0 ± 0.5 mL.
For the compound `CN(Cc1cnc2nc(N)nc(N)c2n1)c1ccc(C(=O)N[C@@H](CCC(=O)O)C(=O)O)cc1` [METHOTREXATE], in test [7] (0.3 Mg/kg/day), the “HINDLEG PARALYSIS - CUMULATIVE INCIDENCE DAY 9 TO 13” value is 0/11** and the “HINDLEG PARALYSIS - CUMULATIVE INCIDENCE DAY 14 TO 18” value is 0/11**.
